From patent publication US20230193265A1, “CUG REPEAT SEQUENCE BINDING AGENT” (OSAKA UNIVERSITY, priority 2020, published 2023)

What was measured:
[1] = test system: r(CUG)9; test: Surface plasmon resonance (SPR) binding to immobilized r(CUG)9 RNA
Description: A streptavidin-coated sensor chip (SA chip, GE Healthcare) was washed with HBS-EP^+ buffer (10 mM HEPES, pH 7.4, 0.15 M NaCl, 3 mM EDTA and 0.05% v/v Surfactant P20) for 6 minutes, and then activated with three consecutive 1-min injection of 30 μL of activation buffer (50 mM NaOH and 1 M NaCl).
5′-Biotinylated r(CUG)9 (Thermo Fisher Scientific Inc.) was diluted to 0.1 μM with HEPES buffer (10 mM HEPES and 500 mM NaCl) and flowed onto the sensor chip until immobilized response units (RU) reaching around 400 RU. The amount of r(CUG)9 immobilized on the surface of the sensor chip was at 401 RU.
Surface plasmon resonance was measured using BIAcore T200 SPR system (GE Healthcare).
r(CUG)9 used for the SPR assay has the sequence as shown below.
For single-cycle kinetic (SCK) analysis, the surface of the sensor chip was conditioned by 120 sec exposure of continuous flow of HBS-EP^+ buffer at a flow rate of 30 μL/min at 25° C. Compound JM608 was dissolved in HBS-EP^+ buffer at a concentration of 0.063 μM, 0.125 μM, 0.25 μM, 0.50 μM and 1.0 μM, and the resulting solutions were sequentially injected on the sensor surface for 60 seconds each at a flow rate of 30 μL/min per cycle.
The obtained SPR response curves were analyzed using BIAcore T200 evaluation software (version 2.0).
SPR measurement was performed in the same manner as in Example 1 except that compound JM642 was used in place of compound JM608 and that solutions of compound JM642 at concentrations of 6 nM, 13 nM, 25 nM, 50 nM and 100 nM were sequentially injected.
The resonance unit for the compound at a concentration of 25 nM in Example 1 was calculated from the measured value (1.9 RU) for the compound at 63 nM using the formula: 1.9 RU×(25 nM/63 nM).

[2] = test system: Atp2a1 (sarcoplasmic reticulum Ca2+/ATPase gene) Exon 22 splicing; test: Improvement of Atp2a1 splicing abnormality in DM1 mouse model; type: in vivo, homozygous HSA^LR transgenic mice; settings: 20 mg/kg/day, daily intraperitoneal administration for five days; rectus femoris (quadriceps)
Description: (§1) Gender- and age-matched homozygous HSA^LR transgenic mice of line 20b (FVB inbred background) (Science 2000, 289, 1769-1772) (<3 months old) were treated with JM642 at indicated doses (10 mg/kg/day and 20 mg/kg/day) for five days by daily intraperitoneal administration. After treatments, the rectus femoris (quadriceps) were obtained for splicing analysis. Total RNA extraction from the tissue, cDNA synthesis and polymerase chain reaction (PCR) were carried out according to Ann. Clin. Transl. Neurol. 2016, 3, 42-54. The PCR products were separated by agarose gel electrophoresis, and the gel was stained with GelRed (Biotium). The gel was imaged using a Typhoon laser fluorimager (GE Healthcare) and the gel bands were quantified using ImageQuant (GE Healthcare).
(§2) For normal mice and mice treated in the same manner as above except that JM642 was not administered, total RNA extraction, cDNA synthesis, PCR and electrophoresis of the PCR products were performed in the same manner as above.
Evaluation was performed in the same manner as in Example 3 except that the compound (DDAP) shown below synthesized in accordance with the method described in non-patent literature 3 was used in place of compound JM642.

[3] = test system: Clcn1 (muscle-specific chloride channel gene) Exon 7a splicing; test: Improvement of Clcn1 splicing abnormality in DM1 mouse model; type: in vivo, homozygous HSA^LR transgenic mice; settings: 20 mg/kg/day, daily intraperitoneal administration for five days; rectus femoris (quadriceps)
Description: as §1, §2
Evaluation was performed in the same manner as in Example 3 except that Clcn1 was studied in place of Atp2a1.
Evaluation was performed in the same manner as in Example 4 except that the compound (DDAP) shown above synthesized in accordance with the method described in non-patent literature 3 was used in place of compound JM642.

| Resonance unit (RU) at concentration of 25 nM ([1]; 25 nM compound, r(CUG)9 immobilized at 401 RU, calculated from measured value at 63 nM: 1.9 RU×(25 nM/63 nM)) [RU] | Resonance unit, measured value at 63 nM ([1]; 63 nM compound, r(CUG)9 immobilized at 401 RU) [RU] | binding capacity to the CUG repeat sequence ([1]; SPR, FIGS. 1 and 2 and Table 2) | Structure (SMILES) | inclusion rate of Exon 22 [2] [%] | skipping rate of Exon 7a [3] [%] |
| --- | --- | --- | --- | --- | --- |
| 0.8 | 1.9 | observed | NCCCNc1nc(NC(=O)OCCCN)cc2c(-c3ccnc(N4CCNCC4)c3)cccc12 [JM608, 3-aminopropyl (1-((3-aminopropyl)amino)-5-(2-(piperazin-1-yl)pyridin-4-yl)isoquinolin-3-yl)carbamate] | – | – |
| – | – | – | NCCCNc1nc(NC(=O)OCCCNC(=O)CCNCCC(=O)NCCCOC(=O)Nc2cc3c(-c4ccnc(N5CCNCC5)c4)cccc3c(NCCCN)n2)cc2c(-c3ccnc(N4CCNCC4)c3)cccc12 [JM642, ((3,3′-azanediylbis(propanoyl))bis(azanediyl))bis(propane-3,1-diyl)bis((1-((3-aminopropyl)amino)-5-(2-(piperazin-1-yl)pyridin-4-yl)isoquinolin-3-yl)carbamate)] | 70 | 70 |
